The target in test [1] is T1, L. monocytogenes AgrC (Listeria monocytogenes serovar 1/2a, UniProt Q8YAR5). Nature of the test: Fluorescence (agr-GFP) reporter agonism assay, ΔagrD reporter strain. It is filed as cell-based. Details: Emax: dose or concentration left out as unconfirmed. Particulars: for agonism activity (in words): ΔagrD reporter; for agonism or antagonism activity compared to vehicle (FIG. 1B): 10 μM, wild-type reporter or ΔagrD reporter. An excerpt:
(§1) Construction of Listeria agr Reporter Strains. A gene block was designed and purchased from Integrated DNA Technologies to contain an EagI recognition site, the PII promoter of the agr system, the 3′ UTR of hly, super folder GFP, and a SaII recognition site. The gene block was digested with EagI and SaII, cloned into an EagI/SaII-cut pAM401 plasmid resulting in the plasmid pAM401-KW1, and then transformed into E. coli XL1-Blue competent cells. The insertion into pAM401 was confirmed using Kapa polymerase and primers DAP337 and DAP338, and additional confirmation via commercial sequencing. Purified plasmid was transformed into the conjugative E. coli S17 strain, which was used to conjugate to EGD-e and EGD-e ΔagrD to generate the agr-GFP reporter strains EGD-e:pAM401-KW1 and EGD-e ΔagrD:pAM401-KW1. Conjugation was verified using primers DAP337 and DAP338.
(§2) Fluorescence reporter assay protocol. For QS (agr) reporter assays, peptide stock solutions in DMSO (1 mM) were serially diluted in DMSO, and 2 μL of solution was added to each well in a black 96-well plate (polystyrene microtiter plate, Costar). Agonism assays utilized the ΔagrD reporter strain, with 2 μL of 100 μM AIP (final concentration 1 μM) as a positive control and 2 μL of DMSO as a negative control. Antagonism assays utilized the EGD-e reporter strain, with 2 μL of DMSO as a positive control. In both assays, wells containing only BHI media served as negative controls for normalization. An overnight culture of bacteria was diluted 1:50 in fresh BHI, then 198 μL were transferred to each well (excluding the media control wells). Plates were then incubated at 37° C. for 24 hours with shaking at 200 rpm. Fluorescence of GFP (excitation at 500 nm, emission at 540 nm) and OD600 of each well was measured using BioTek Synergy 2 plate reader. Measurements were processed by subtracting background fluorescence (BHI media), correcting by OD600, and the normalizing using the 1 μM AIP or the DMSO control for the agonism and antagonism assays, respectively. Non-linear regression curves were fitted to the data sets in GraphPad Prism 7 by using variable slope (four-parameter) dose-response analysis to obtain potency, efficacy, and statistical information about the activity of tested peptides. Each peptide was tested with three technical replicates and three biological replicates. All data derived from fluorescent reporter strains are represented with data points signifying the mean and error bars signifying the standard deviation from all replicates.
Preparation and Validation of Listeria agr Reporter Strains. In order to facilitate profiling the native AIP and its analogs for agr activity, L. monocytogenes agr GFP reporters were designed and constructed as described above (see Materials and General Methods). Briefly, a plasmid containing the agr promoter region upstream of gfp was transformed into wild-type (EGD-e) and ΔagrD L. monocytogenes strains. The wild-type reporter naturally produces its own AIP and is able to activate AgrC, which may subsequently phosphorylate AgrA for productive binding to DNA and triggering the production of GFP (FIG. 1A). The ΔagrD reporter, lacking the ability to produce its own AIP and thereby activate AgrC, is unable to trigger substantial production of GFP. However, adding exogenous AIP to the ΔagrD reporter results in an increase of fluorescence, indicating agr activity has been restored.

Test [2] addresses T1, L. monocytogenes AgrC. The experiment in a line: Fluorescence (agr-GFP) reporter antagonism assay, wild-type EGD-e reporter strain. It is filed as cell-based.
Source text: as §1, §2
Preparation and Validation of Listeria agr Reporter Strains. […] However, adding exogenous AIP to the ΔagrD reporter results in an increase of fluorescence, indicating agr activity has been restored.

Where [3] appears, read: read-out: Max Activation Observed.

Where two headings read alike, the source gives them in different places. Where a SMILES comes first, the peptide text is derived from it. Bridges are numbered along the chain shown (N, C = ends). [ ]: non-standard residue; d: D form.

T1 sequence (Q8YAR5 entry or part of it): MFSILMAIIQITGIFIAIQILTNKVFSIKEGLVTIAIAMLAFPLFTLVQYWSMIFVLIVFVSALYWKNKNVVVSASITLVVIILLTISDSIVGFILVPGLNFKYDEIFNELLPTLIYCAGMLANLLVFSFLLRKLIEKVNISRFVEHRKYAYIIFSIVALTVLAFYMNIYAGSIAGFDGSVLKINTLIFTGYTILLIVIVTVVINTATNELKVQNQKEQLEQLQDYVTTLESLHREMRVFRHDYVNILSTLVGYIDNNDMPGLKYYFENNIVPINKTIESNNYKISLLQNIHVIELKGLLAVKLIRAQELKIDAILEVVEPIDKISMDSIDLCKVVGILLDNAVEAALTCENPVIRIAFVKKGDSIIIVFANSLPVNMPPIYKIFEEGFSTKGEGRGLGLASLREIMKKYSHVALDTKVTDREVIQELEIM

For `CSCC[C@@H]1NC(=O)[C@H](C)NC(=O)[C@@H](NC(=O)[C@H](C)N)CSC(=O)[C@H](C(C)C)NC(=O)[C@H](Cc2ccccc2)NC1=O` [AIP F3A, A-(C-A-M-F-V)] (H-ACAMFV; thioester 2-C; N-terminus assumed), on L. monocytogenes AgrC [1] (setting [3]), the Emax was 9.72%. Moreover, the “agonism activity (in words)” value at L. monocytogenes AgrC [1] was “abolished agonism activity”. Besides, the “antagonism activity (in words)” value at L. monocytogenes AgrC [2] is “no noticeable antagonism”. For `CSCC[C@@H]1NC(=O)[C@@H](Cc2ccccc2)NC(=O)[C@@H](NC(=O)[C@H](C)N)CSC(=O)[C@H](C(C)C)NC(=O)[C@H](Cc2ccccc2)NC1=O` [AIP F3dF, A-(C-dF-M-F-V)] (H-AC[dF]MFV; thioester 2-C; N-terminus assumed), in that order: 6.63%, “largely inactive” and “largely inactive”. Turning to `CC(C)C[C@@H]1NC(=O)CNC(=O)[C@H](C(C)C)NC(=O)[C@@H](NC(=O)[C@@H](N)CO)CSC(=O)[C@H](CO)NC1=O` [L. kieliensis AIP, S-(C-V-G-L-S), reference compound] (H-SCVGLS; thioester 2-C; N-terminus assumed), on L. monocytogenes AgrC [1] (read-out: Max Activation), the Emax stood at 10.4%. For `CC[C@H](C)[C@@H]1NC(=O)[C@H](CC(C)C)NC(=O)[C@H](Cc2ccccc2)NC(=O)[C@@H](NC(=O)[C@@H](N)CO)CSC(=O)[C@H](Cc2ccccc2)NC1=O` [L. newyorkensis AIP, S-(C-F-L-I-F), reference compound] (H-SCFLIF; thioester 2-C; N-terminus assumed), the “agonism or antagonism activity compared to vehicle (FIG. 1B)” value at L. monocytogenes AgrC [1] is reported as “minimal efficacy”. On L. monocytogenes AgrC [1] (read-out: Max Activation), the Emax came out at 23.6%. On to `CC(C)C[C@@H]1NC(=O)[C@H](C(C)C)NC(=O)[C@@H](NC(=O)[C@@H](N)CO)CSC(=O)[C@H](CC(C)C)NC(=O)[C@H](Cc2c[nH]cn2)NC1=O` [L. weihenstephanensis AIP, S-(C-V-L-H-L), reference compound] (H-SCVLHL; thioester 2-C; N-terminus assumed), for which, on L. monocytogenes AgrC [1] (read-out: Max Activation), the Emax stood at 11.2%. Same read-out and setting: as for `CSCC[C@@H]1NC(=O)[C@H](CO)NC(=O)[C@@H](NC(=O)[C@H](C)N)CSC(=O)[C@H](C(C)C)NC(=O)[C@H](Cc2ccccc2)NC1=O` [Lm AIP F3S, A-(C-S-M-F-V)] (H-ACSMFV; thioester 2-C; N-terminus assumed), the figure is 16.1%; as for `CC[C@H](C)[C@@H]1NC(=O)[C@H](Cc2ccccc2)NC(=O)[C@H](CC(=O)O)NC(=O)[C@@H](NC(=O)[C@@H](NC(=O)[C@H](CO)NC(=O)[C@@H](N)Cc2ccc(O)cc2)[C@@H](C)O)CSC(=O)[C@H](CCSC)NC1=O` [Sa AIP-I, Y-S-T-(C-D-F-I-M), reference compound] (H-YSTCDFIM; thioester 4-C), 12.2%; as for `CC(C)C[C@@H]1NC(=O)[C@H](CO)NC(=O)[C@H](CO)NC(=O)[C@@H](NC(=O)[C@H](C)NC(=O)[C@H](CC(N)=O)NC(=O)[C@@H](NC(=O)CN)C(C)C)CSC(=O)[C@H](Cc2ccccc2)NC1=O` [Sa AIP-II, G-V-N-A-(C-S-S-L-F), reference compound] (H-GVNACSSLF; thioester 5-C), 12%. Still for that read-out and setting: as for `CC[C@H](C)[C@H](N)C(=O)N[C@@H](CC(N)=O)C(=O)N[C@H]1CSC(=O)[C@H](CC(C)C)NC(=O)[C@H](CC(C)C)NC(=O)[C@H](Cc2ccccc2)NC(=O)[C@H](C)NC1=O` [Sa AIP-III D4A, I-N-(C-A-F-L-L), reference compound] (H-INCAFLL; thioester 3-C), the figure is 12.3%; as for `CC[C@H](C)[C@H](N)C(=O)N[C@@H](CC(N)=O)C(=O)N[C@H]1CSC(=O)[C@H](CC(C)C)NC(=O)[C@H](CC(C)C)NC(=O)[C@H](Cc2ccccc2)NC(=O)[C@H](CC(=O)O)NC1=O` [Sa AIP-III, I-N-(C-D-F-L-L), reference compound] (H-INCDFLL; thioester 3-C), 11.3%. For the compound `CC[C@H](C)[C@@H]1NC(=O)[C@H](Cc2ccccc2)NC(=O)[C@H](Cc2ccc(O)cc2)NC(=O)[C@@H](NC(=O)[C@@H](NC(=O)[C@H](CO)NC(=O)[C@@H](N)Cc2ccc(O)cc2)[C@@H](C)O)CSC(=O)[C@H](CCSC)NC1=O` [Sa AIP-IV, Y-S-T-(C-Y-F-I-M), reference compound] (H-YSTCYFIM; thioester 4-C), the “agonism or antagonism activity compared to vehicle (FIG. 1B)” value on L. monocytogenes AgrC [1] is given as “minimal efficacy”. The Emax at L. monocytogenes AgrC [1] (read-out: Max Activation) was determined as 9.81%. As to `CC(C)[C@H](NC(=O)[C@H](CO)NC(=O)[C@H](C)N)C(=O)N[C@H]1CSC(=O)[C@H](Cc2ccccc2)NC(=O)[C@H](Cc2ccc(O)cc2)NC(=O)[C@H](C)NC(=O)[C@H](C)NC1=O` [Se AIP-I D1AS6A, A-S-V-(C-A-A-Y-F), reference compound] (H-ASVCAAYF; thioester 4-C), the Emax on L. monocytogenes AgrC [1] (read-out: Max Activation) was 12.4%.

Turning to `C[C@H](N)C(=O)N[C@@H](CO)C(=O)N[C@@H](C)C(=O)N[C@H]1CSC(=O)[C@H](Cc2ccccc2)NC(=O)[C@H](Cc2ccc(O)cc2)NC(=O)[C@H](C)NC(=O)[C@H](C)NC1=O` [Se AIP-I D1AV3AS6A, A-S-A-(C-A-A-Y-F), reference compound] (H-ASACAAYF; thioester 4-C), at L. monocytogenes AgrC [1] (read-out: Max Activation), the Emax amounted to 12.1%. Same read-out and setting: as for `CC(C)[C@H](NC(=O)[C@H](CO)NC(=O)[C@@H](N)CC(=O)O)C(=O)N[C@H]1CSC(=O)[C@H](Cc2ccccc2)NC(=O)[C@H](Cc2ccc(O)cc2)NC(=O)[C@H](CO)NC(=O)[C@H](C)NC1=O` [Se AIP-I, D-S-V-(C-A-S-Y-F), reference compound] (H-DSVCASYF; thioester 4-C), the figure is 8.65%; as for `CC(C)C[C@@H]1NC(=O)[C@H](Cc2ccc(O)cc2)NC(=O)[C@H](CC(N)=O)NC(=O)[C@H](CO)NC(=O)[C@@H](NC(=O)[C@@H]2CCCN2C(=O)[C@H](CC(N)=O)NC(=O)[C@H](Cc2ccc(O)cc2)NC(=O)[C@H](CCCCN)NC(=O)[C@H](CO)NC(=O)[C@H](C)NC(=O)[C@@H](N)CC(N)=O)CSC1=O` [Se AIP-II, N-A-S-K-Y-N-P-(C-S-N-Y-L), reference compound] (H-NASKYNPCSNYL; thioester 8-C), 8.45%.

With `CC(C)C[C@@H]1NC(=O)[C@H](Cc2ccc(O)cc2)NC(=O)[C@H](CO)NC(=O)[C@H](C)NC(=O)[C@@H](NC(=O)[C@@H]2CCCN2C(=O)[C@H](CC(N)=O)NC(=O)[C@H](Cc2ccc(O)cc2)NC(=O)[C@H](CCCCN)NC(=O)[C@H](C)NC(=O)[C@H](C)NC(=O)[C@@H](N)CC(N)=O)CSC1=O` [Se AIP-III, N-A-A-K-Y-N-P-(C-A-S-Y-L), reference compound] (H-NAAKYNPCASYL; thioester 8-C), on L. monocytogenes AgrC [1] (read-out: Max Activation), the Emax is 8.73%. Consider A-(C-F-M-A-V) [AIP F5A], for which the “Max Activation Observed” value on L. monocytogenes AgrC [1] (Table 6, normalized with 1 μM AIP (100%) and media (0%) in ΔagrD reporter) is listed as 6.37%. Moreover, the “agonism activity (in words)” value on L. monocytogenes AgrC [1] was “abolished agonism activity”. Also, the “antagonism activity (in words)” value at L. monocytogenes AgrC [2] is “no noticeable antagonism”.

These data come from patent US12116424B2, “Compounds and compositions for modulating Listeria virulence” (priority 2021, dated 2024).
